Experimental data published in paper PMC12683216, “Using High‐Throughput Screening to Identify Crosslinking Peptides That Control Cell‐Mediated Matrix Degradation” (Advanced Healthcare Materials, 2025).
Where a SMILES comes first, the peptide text is derived from it. [ ]: non-standard residue; d: D form. βAla = NCCC(=O)O

Tests used:
Format in all cases: in vitro ADME, human
[1] = Soluble peptide degradation, Cells condition (LC-MS); conditions: human
Method: (§1) Most in vitro protease activity assays incubate the peptides or proteins of interest with a single protease in a buffered solution. However, the kinetics of protease activity in tissues are complex and highly regulated, and both the activity^[ [37] ^] and substrate specificity^[ [38] ^] of proteases can be modulated through association with other proteins.^[ [39] ^] Most MMP‐substrate peptides are also cleaved by multiple proteases,^[ [5] ^] and within the context of biomaterials, the most important factor is typically how the combined activity of all proteases, rather than the activity of any specific protease, modifies the local microenvironment versus the activity due to any individual enzyme. We synthesized peptides identified in the TAILS proteomic screen that were present on proteins that are known to be secreted or found on the cell membrane, pooled them, and added them either to cell culture media on top of cells, the “Cells” condition, or conditioned media lacking cells, the “Media” condition (Figure 2A). The fraction of peptides remaining after 24 h in each condition was then quantified using LC‐MS. Soluble proteases should be present in both conditions, however, membrane‐type proteases should primarily be found in the samples containing cells and not the conditioned media samples. A key benefit of this approach is that it surveys the total functional proteolytic activity, including the effects of inhibitors and co‐factors, and quantifies the degradation rate of soluble peptides by the complete secretome of different cell types.
(§2) hUVECs (75000 per well) or hMSCs (36000 per well) were seeded into a 48 well plate, and 500 µL media was added to the wells. […] The peptide libraries were dissolved at a stock solution of 10 mM total peptide content. For libraries containing 38 peptides, 95 µL of the stock solution was added to each well; for libraries with 19 peptides, 47.5 µL was added to each well, and media was taken at 0 and 24 h. Add 4 µL of acetic acid to all collected media in the LC‐MS plates and store them in a −80 °C freezer to prevent further proteolytic degradation. From each sample, 10 µL of crude solution was introduced by the LC‐MS through a Thermo Scientific Vanquish LC System (Thermo Fisher Scientific), which outputted to a Thermo Scientific LTQ XL Linear Ion Trap Mass Spectrometer (Thermo Fisher Scientific). The sampled mixture was trapped on a column (ProntoSIL C18 AQ, 120 Å, 3 µm, 2.0 x 50 mm HPLC Column, PN 0502F184PS030, MAC‐MOD Analytical Inc.). The samples were loaded onto the column with a solvent containing acetonitrile/water, 5:95 (v/v) containing 1% acetic acid at a flow rate of 300 µL min^−1 and held for 1 min. The sample was then eluted from the column with a linear gradient of 5–40% Solvent B (1% acetic acid in acetonitrile) at the same flow rate for 5 min. This was followed by a 1 min ramp up to 100% Solvent B, where it was re‐equilibrated with Solvent A (1% acetic acid) to 5% solvent B over the course of 1 min and held there for 2 min. The column temperature was kept at a constant 29 °C, and the mass spectrometer was operated in positive ion mode. Using a Heated ESI, the Source Voltage was set to 4.1 kV, and the capillary temperature was 350 °C. For non‐library degradation studies, 2.5 µL of 10 mM peptide stock solution for each peptide was added.
(§3) In the MMP‐14 inhibitor study, the MMP‐14 inhibitor NSC 405 020 (Cayman Chemical Company) was dissolved in DMSO to make a 10 mM stock solution and stored in −20 °C freezer. 0.5 µL MMP‐14 inhibitor stock solution was added to each well to achieve a 10 µM final concentration.
(§4) For all degradation studies using soluble peptides, a non‐proteolytically degradable NH2‐βFβAβAβAβAβAβA‐amide (βFβA6) peptide, where βF is β‐phenylalanine and βA is β‐alanine, was added at a 50 µM concentration and used as an internal standard. Peptide degradation ratios were measured by LC‐MS and analyzed by Xcalibur. […]

hUVECs = assay: as above; conditions: Figure 3B heatmap; split-and-pool libraries KLVADX1X2ASAE in media on hUVECs; 24 h; LC-MS, ratio to βFβA6; N = 2
Method: as §1, §2, §3, §4

[2] = Soluble peptide degradation, Media condition (cell-conditioned media, LC-MS); conditions: human; for remaining at 24 h: hMSC-conditioned media without cells (Media condition), Figure 3B heatmap, split-and-pool libraries KLVADX1X2ASAE in hMSC-conditioned media without cells, LC-MS, ratio to βFβA6, N = 2, read-out: Fraction of peptide remaining after 24 hours: hMSC Media
Method: as §1, §2
(§5) To assess the activity of the conditioned media, the media were divided into two equal portions. One portion was used for a standard degradation study, while the other was cultured for an additional 24 h before the PanMMP and KLVADLMASAE were added. After 24 h of incubation, the media were collected for further analysis. To assess the impact of recombinant MMP‐14 on PanMMP and KLVADLMASAE, recombinant MMP‐14 (antibodies.com) was dissolved in the media at a concentration of 0.5 nM. The remaining steps followed the standard degradation study protocol. […]

[3] = as above; conditions: human, hUVEC-conditioned media without cells (Media condition); Figure 3B heatmap; split-and-pool libraries KLVADX1X2ASAE in hUVEC-conditioned media without cells; 24 h; LC-MS, ratio to βFβA6; N = 2; read-out: Fraction of peptide remaining after 24 hours: hUVEC Media
Method: as §1, §2, §5

MMP-14 = assay: Soluble peptide degradation, Cells condition (LC-MS); conditions: human, cells or culture medium
Method: as §1, §2, §3, §4

[4] = hMSCs in culture with fresh media (Cells condition), Figure 3B heatmap, split-and-pool libraries KLVADX1X2ASAE (19 or 38 peptides per library) in media on hMSCs, 24 h, LC-MS, ratio to βFβA6, N = 2, read-out: Fraction of peptide remaining after 24 hours: hMSC Cells
[5] = hUVECs in culture with fresh media (Cells condition), Figure 3B heatmap, split-and-pool libraries KLVADX1X2ASAE in media on hUVECs, 24 h, LC-MS, ratio to βFβA6, N = 2, read-out: Fraction of peptide remaining after 24 hours: hUVEC Cells

What does the source list for CC(=O)NCCC(=O)N[C@@H](CCCCN)C(=O)N[C@@H](CC(C)C)C(=O)N[C@H](C(=O)N[C@@H](C)C(=O)N[C@@H](CC(=O)O)C(=O)N[C@@H](CCC(=O)O)C(=O)N1CCC[C@H]1C(=O)N[C@@H](C)C(=O)N[C@@H](CO)C(=O)N[C@@H](C)C(=O)N[C@@H](CCC(=O)O)C(=O)NCCC(N)=O)C(C)C [Glu-Pro] (Ac-[βAla]KLVADEPASAE[βAla]-NH2)?
remaining at 24 h [1, 4]: 49%; Fraction of peptide remaining after 24 hours: hUVEC Cells (hUVECs): 0.89; remaining at 24 h [2]: 79%; remaining at 24 h [3]: 96%

Which results are given for CC(=O)NCCC(=O)N[C@@H](CCCCN)C(=O)N[C@@H](CC(C)C)C(=O)N[C@H](C(=O)N[C@@H](C)C(=O)N[C@@H](CC(=O)O)C(=O)N1CCC[C@H]1C(=O)N[C@@H](CC(C)C)C(=O)N[C@@H](C)C(=O)N[C@@H](CO)C(=O)N[C@@H](C)C(=O)N[C@@H](CCC(=O)O)C(=O)NCCC(N)=O)C(C)C [KLVAD-PL] (Ac-[βAla]KLVADPLASAE[βAla]-NH2)?
remaining at 24 h ([1]; cells or culture medium): 83%; remaining at 24 h ([1]; cells or culture medium, Fraction of peptide remaining after 24 hours: hMSC Cells): 51%; remaining at 24 h, 50 µM (MMP-14): 99%; remaining at 24 h, 50 µM (MMP-14; Fraction of peptide remaining after 24 hours: hMSC +Inhibitor): 94%; remaining at 24 h, 50 µM ([2]; cells or culture medium): 91%

What does the source list for CC(=O)NCCC(=O)N[C@@H](CCCCN)C(=O)N[C@@H](CC(C)C)C(=O)N[C@H](C(=O)N[C@@H](C)C(=O)N[C@@H](CC(=O)O)C(=O)N1CCC[C@H]1C(=O)N[C@@H](Cc1ccccc1)C(=O)N[C@@H](C)C(=O)N[C@@H](CO)C(=O)N[C@@H](C)C(=O)N[C@@H](CCC(=O)O)C(=O)NCCC(N)=O)C(C)C [Pro-Phe] (Ac-[βAla]KLVADPFASAE[βAla]-NH2)?
remaining at 24 h [1, 4]: 41%; remaining at 24 h [1, 5]: 84%; remaining at 24 h [2]: 73%; remaining at 24 h [3]: 97%

Which remaining at 24 h [1, 4] does the source give for CC(=O)NCCC(=O)N[C@@H](CCCCN)C(=O)N[C@@H](CC(C)C)C(=O)N[C@H](C(=O)N[C@@H](C)C(=O)N[C@@H](CC(=O)O)C(=O)N1CCC[C@H]1C(=O)N[C@@H](Cc1c[nH]c2ccccc12)C(=O)N[C@@H](C)C(=O)N[C@@H](CO)C(=O)N[C@@H](C)C(=O)N[C@@H](CCC(=O)O)C(=O)NCCC(N)=O)C(C)C [Pro-Trp] (Ac-[βAla]KLVADPWASAE[βAla]-NH2) here?
Its remaining at 24 h is 38%.

And the remaining at 24 h [1, 5]?
Its remaining at 24 h is 81%.

What about the remaining at 24 h [2] of the same compound?
The remaining at 24 h was 66%.

What about the remaining at 24 h [3] of the same compound?
The remaining at 24 h was 94%.

Which remaining at 24 h [1, 4] does the source give for CC(=O)NCCC(=O)N[C@@H](CCCCN)C(=O)N[C@@H](CC(C)C)C(=O)N[C@H](C(=O)N[C@@H](C)C(=O)N[C@@H](CC(=O)O)C(=O)N1CCC[C@H]1C(=O)N[C@H](C(=O)N[C@@H](C)C(=O)N[C@@H](CO)C(=O)N[C@@H](C)C(=O)N[C@@H](CCC(=O)O)C(=O)NCCC(N)=O)C(C)C)C(C)C [Pro-Val] (Ac-[βAla]KLVADPVASAE[βAla]-NH2) here?
The remaining at 24 h was 51%.

And the remaining at 24 h [1, 5]?
Its remaining at 24 h is 92%.

And the remaining at 24 h [2]?
Its remaining at 24 h is 84%.

What about the remaining at 24 h [3] of the same compound?
The remaining at 24 h was 100%.

For CC(=O)NCCC(=O)N[C@@H](CCCCN)C(=O)N[C@@H](CC(C)C)C(=O)N[C@H](C(=O)N[C@@H](C)C(=O)N[C@@H](CC(=O)O)C(=O)N[C@@H](CO)C(=O)N[C@@H](CC(=O)O)C(=O)N[C@@H](C)C(=O)N[C@@H](CO)C(=O)N[C@@H](C)C(=O)N[C@@H](CCC(=O)O)C(=O)NCCC(N)=O)C(C)C [Ser-Asp] (Ac-[βAla]KLVADSDASAE[βAla]-NH2), which remaining at 24 h [1, 4] is on record?
The remaining at 24 h was 48%.

What about the remaining at 24 h [1, 5] of the same compound?
Its remaining at 24 h is 84%.

What about the remaining at 24 h [2] of the same compound?
Its remaining at 24 h is 71%.

And the remaining at 24 h [3]?
The remaining at 24 h was 94%.

Which results are given for CC(=O)NCCC(=O)N[C@@H](CCCCN)C(=O)N[C@@H](CC(C)C)C(=O)N[C@H](C(=O)N[C@@H](C)C(=O)N[C@@H](CC(=O)O)C(=O)N[C@@H](CO)C(=O)N[C@@H](Cc1c[nH]c2ccccc12)C(=O)N[C@@H](C)C(=O)N[C@@H](CO)C(=O)N[C@@H](C)C(=O)N[C@@H](CCC(=O)O)C(=O)NCCC(N)=O)C(C)C [Ser-Trp] (Ac-[βAla]KLVADSWASAE[βAla]-NH2)?
remaining at 24 h [1, 4]: 40%; remaining at 24 h [1, 5]: 86%; remaining at 24 h [2]: 72%; remaining at 24 h [3]: 95%

Which remaining at 24 h [1, 4] does the source give for CC[C@H](C)[C@H](NC(=O)[C@H](Cc1ccc(O)cc1)NC(=O)[C@H](CC(=O)O)NC(=O)[C@H](C)NC(=O)[C@@H](NC(=O)[C@H](CC(C)C)NC(=O)[C@H](CCCCN)NC(=O)CCNC(C)=O)C(C)C)C(=O)N[C@@H](C)C(=O)N[C@@H](CO)C(=O)N[C@@H](C)C(=O)N[C@@H](CCC(=O)O)C(=O)NCCC(N)=O [Tyr-Ile] (Ac-[βAla]KLVADYIASAE[βAla]-NH2) here?
The remaining at 24 h was 43%.

And the remaining at 24 h [1, 5]?
The remaining at 24 h was 86%.

What about the remaining at 24 h [2] of the same compound?
The remaining at 24 h was 76%.

And the remaining at 24 h [3]?
Its remaining at 24 h is 92%.

For CC(=O)NCCC(=O)N[C@@H](CCCCN)C(=O)N[C@@H](CC(C)C)C(=O)N[C@H](C(=O)N[C@@H](C)C(=O)N[C@@H](CC(=O)O)C(=O)N[C@@H](Cc1ccc(O)cc1)C(=O)N1CCC[C@H]1C(=O)N[C@@H](C)C(=O)N[C@@H](CO)C(=O)N[C@@H](C)C(=O)N[C@@H](CCC(=O)O)C(=O)NCCC(N)=O)C(C)C [Tyr-Pro] (Ac-[βAla]KLVADYPASAE[βAla]-NH2), which remaining at 24 h [1, 4] is on record?
The remaining at 24 h was 35%.

What about the remaining at 24 h [1, 5] of the same compound?
The remaining at 24 h was 89%.

What about the remaining at 24 h [2] of the same compound?
Its remaining at 24 h is 65%.

What about the remaining at 24 h [3] of the same compound?
Its remaining at 24 h is 96%.
